# Values quoted from earlier work as cited in patent publication US8821924B2, “Rhein or diacerein compositions” (Wockhardt Ltd., priority 2007, dated 2014).
# Conditions: water, alcohols, acetone, dichloromethane and chloroform
structure (smiles),measurement,value
"CC(=O)Oc1cccc2c1C(=O)c1c(OC(C)=O)cc(C(=O)O)cc1C2=O [Diacerein, 4,5-bis(acetyloxy)9,10-dihydro-4,5-dihydroxy-9,10-dioxo-2-anthracenecarboxylic acid]",solubility in solvents,practically insoluble
